According to the NIST ThermoML archive (doi:10.1021/je9006629):

How the values were obtained:
[1] = Liquid; for Normal boiling temperature: Distillation
[2] = refractive index (Na D-line) (dimensionless); xn = mol fraction of the nth substance listed; settings: 293.15 K, 101 kPa, Liquid, Standard Abbe refractometry

CCCCCO [pentan-1-ol]
[1]
Settings	vapor or sublimation pressure [kPa]
379.35 K	31.2
382.4 K	35.3
385.65 K	40
390.75 K	49.2
393.2 K	53.3
394.7 K	56.9
400.05 K	69.3
404.6 K	81.3
408.15 K	91.3
409 K	94.5
411.35 K	101.9
414.65 K	113.3

Settings	Normal boiling temperature [°C]
[1]	138.0

CCCCO [butan-1-ol] + CCCCCCC
[2]
Settings	refractive index
x1 = 0.1121	1.3889
x1 = 0.1897	1.3898
x1 = 0.2845	1.3909
x1 = 0.3707	1.3919
x1 = 0.4655	1.393
x1 = 0.5	1.3934
x1 = 0.5862	1.3944
x1 = 0.681	1.3955
x1 = 0.7586	1.3964
x1 = 0.8276	1.3972
x1 = 0.9224	1.3983
x1 = 1	1.3992

CCCCCCC [heptane] + CCCCCO
Settings	refractive index
[2], x2 = 0	1.3876

CCCCCCC [heptane]
[1]
Settings	vapor or sublimation pressure [kPa]
332.9 K	27.1
335.2 K	29.9
336.85 K	32.3
340.55 K	36.9
343.75 K	41.3
348.55 K	48.9
351.45 K	53.3
351.5 K	53.3
352.35 K	55.3
357.25 K	65.3
363.15 K	78.7
368.45 K	91.3
368.55 K	92.7
371.35 K	100.8
374 K	108.8

Settings	Normal boiling temperature [°C]
[1]	98.50

CCCCO [butan-1-ol]
[1]
Settings	vapor or sublimation pressure [kPa]
356.35 K	25.3
359.45 K	29.3
362.95 K	33.5
368.6 K	42.8
373.45 K	52.5
373.85 K	53.3
377.3 K	61.2
381.9 K	72.8
386.05 K	84.9
387.75 K	91.3
391.95 K	105.3
395.8 K	120.1

Settings	Normal boiling temperature [°C]
[1]	117.80

CCCCCO [pentan-1-ol] + CCCCCCC
[2]
Settings	refractive index
x1 = 0.0755	1.3893
x1 = 0.1601	1.3912
x1 = 0.2844	1.394
x1 = 0.3511	1.3955
x1 = 0.4622	1.398
x1 = 0.5821	1.4007
x1 = 0.6845	1.403
x1 = 0.7732	1.4051
x1 = 0.8978	1.4078
x1 = 1	1.4101

CCCCCCC [heptane] + CCCCO
Settings	refractive index
[2], x2 = 0	1.3876
